Laboratory results taken from patent US20250082577A1, “POLYMER BEADLET COMPOSITIONS AND METHODS OF USE THEREOF FOR IMPROVED STABILITY, BIOAVAILABILITY & SUSTAINED RELEASE” (SpecNova LLC, priority 2023, published 2025).

Tests used:
[1] = cited from earlier work
[2] = whole-body creatine retention from 24-hour urine, double-blind randomized crossover study; conditions: 2 x 5 g oral, 8 hours apart (total 10 grams), fifteen females and males
Protocol: Participants adhered to a plant-based protein diet prior to each testing session. […] Participants were then randomly assigned to ingest capsules containing 5 g of CrM or 5 g of CrM prepared in beadlets (CrM-Bead). […] Participants repeated the experiment after a seven-day washout while ingesting the crossover supplement, i.e. the CrM-Bead group was given CrM and the CrM group was given Crm-Beads. Whole-body creatine retention was determined by subtracting CrM intake from the difference between post-supplementation urine creatine content and expressed in percent retention.

CN(CC(=O)O)C(=N)N.O [CrM, creatine monohydrate]
time to return to baseline in the blood after oral ingestion [1]: 4 to 5 h
24-hour whole-body creatine retention [2]: 81.8%±11.4%
